Data from patent US20240165202A1, “USES OF FGF21 POLYPEPTIDES AND FUSION POLYPEPTIDES THEREOF” (SUNSHINE LAKE PHARMA CO., LTD., priority 2021, published 2024).

Legend:
[1] = system: ob/ob mice nonalcoholic steatohepatitis (NASH) model; test: ob/ob mice high-fat diet NASH model, 6 weeks dosing: blood glucose and body weight; type: in vivo; settings: 10 nmol/kg
Procedure: (§1) 70 Male ob/ob mice (Changzhou Cavens Laboratory Animal Co., Ltd.) weighed about 43-45 g were fed with high-fat diet (D12492, Research Diets, Inc., New Brunswick, NJ) for 9 weeks to establish a nonalcoholic steatohepatitis (NASH) model. 3 Weeks after HFD feeding, the therapeutic efficacy of the compounds dual target fusion protein 1 #, Fc-FGF21 (single target 1 #) and Dulaglutide were tested after 6 weeks of dosing. The experimental animals were randomly divided into 5 groups according to body weight and blood glucose after […] of HFD feeding: the model group (group-1, n=10), the dual target fusion protein 1 #-3 nmol/kg group (group-2, n=10); the dual target fusion protein 1 #-10 nmol/kg group (group-3, […]); Fc-FGF21-10 nmol/kg group (group-4, n=10); Dulaglutide-10 nmol/kg (group-5, n=10). The model group was administrated PBS. The groups of dual target fusion protein 1 #, Fc-FGF21, and Dulaglutide were administrated twice a week for a total of 6 weeks. Feed intake, water intake and body weight of animals were recorded every two days after the start of HFD feeding until the end of the experiment. Blood glucose was measured at 0, 2, 7, 24, 48, 72 hours after the first administration, and then twice a week. At the end of the experiment, the animals were fasted to detect fasting blood glucose.

[2] = system: ob/ob mice nonalcoholic steatohepatitis (NASH) model; test: ob/ob mice high-fat diet NASH model, 6 weeks dosing: liver pathological scores; type: in vivo; settings: 10 nmol/kg twice a week, Mean ± SEM, n = 10
Procedure: as §1

[3] = system: ob/ob mice nonalcoholic steatohepatitis (NASH) model; test: ob/ob mice high-fat diet NASH model, 6 weeks dosing: serum lipids, liver weight, liver function, liver lipids; type: in vivo; settings: 10 nmol/kg
Procedure: as §1

[4] = system: high-fat-induced C57BL/6 mice model; test: High-fat diet induced C57BL/6 mice: serum lipids, ALT/AST, liver weight, liver homogenate lipids; type: in vivo; settings: 16th week of administration
From the text: (§2) After 16 weeks of high-fat diet feeding (D12492, Research Diets, Inc., New Brunswick, NJ), C57BL/6 mice (purchased from Hunan SJA Laboratory Animal Co., Ltd.) were randomly divided into vehicle group or treatment group according to the measured blood glucose and body weight. The study included control group with normal diet, high-fat diet Model group was administrated with vehicle PBS, subcutaneous injection of semaglutide once a day (QD) 10 nmol/kg, dual target 1 # was administrated twice weekly (BIW), the low dose was 3 nmol/kg and the high dose was 10 nmol/kg, 7 animals in each group. The drug groups were administrated the corresponding drugs according to the administration frequency for 16 consecutive weeks, and the high-fat diet was continued during the administration period until the end of the experiment. The random blood glucose, body weight and intraperitoneal glucose tolerance IPGTT of mice were monitored.
(§3) At the end of the experiment of Example 4, that is, the 16th week of administration, the animals were fasted overnight and could drink water. After the animals were weighed, the orbital blood was collected, serum was separated, and serum lipids (TG (triglyceride), TC (total cholesterol)) and liver function indexes ALT (alanine aminotransferase)/AST (aspartate aminotransferase) were detected by an automatic biochemical analyzer. Serum insulin levels were detected by Elisa kit, and the HOMA-IR index was calculated according to the formula, that is, HOMA-IR=fasting blood glucose (blood glucose value at 0 time of IPGTT in the 16th week)×fasting insulin/22.5. After the blood was collected, the liver, subcutaneous fat, epididymal fat and perirenal fat were dissected and weighed. About 40-60 mg of liver tissue was weighed and put into a homogenization tube, 1 mL of absolute ethanol was added for homogenization, then the homogenate was taken and centrifuged at 4° C., 3,500 rpm for 10 min. The supernatant was taken, and the concentrations of TG and TC in the supernatant were detected by an automatic biochemical analyzer, and then the contents of TG and TC were calculated according to the weighed liver weight

[5] = system: high-fat-induced C57BL/6 mice model; test: High-fat diet induced C57BL/6 mice, 16 weeks dosing: random blood glucose, IPGTT, fasting glucose, insulin, HOMA-IR, body weight, fat mass; type: in vivo
From the text: as §2, §3

[6] = system: high-fat diet induced C57BL/6 mice model; test: High-fat diet induced C57BL/6 mice: liver histopathology NAS and fibrosis scores; type: in vivo; settings: 10 nmol/kg (semaglutide QD, dual target 1# BIW), 16 weeks, Mean ± SD, n = 6-7
From the text: as §2
The left lobe of the liver obtained by dissection in Example 5 was immersed in a 50 mL centrifuge tube filled with formalin to prepare liver disease sections, and the formalin liver tissue was subjected to wax block making, sectioning, HE staining, and HE staining slices were mailed to Suzhou KCl Co., Ltd. for NAS scoring; fibrosis was assessed by Sirius red staining, and the scores were scored according to the severity of fibrosis, with a score of 1-3. Liver histopathological changes were observed under light microscope and NAS/fibrosis scores were performed.

[7] = mouse models; cited from earlier work
[8] = 10 nmol/kg (semaglutide QD, dual target 1# BIW), 16 weeks, Mean ± SD, n = 6-7

Dulaglutide
weight growth rate compared with the model group ([1]; D1 to D43): decreased significantly | average weight loss rate ([1]; D1 to D43, p<0.01 or 0.001): 8.9% | blood glucose level versus model group ([1]; after 5 days, P>0.05): less different from that of the model group | Inflammatory infiltration Scores [2]: 0.57 ± 0.13 | Liver ballooning Scores [2]: 0.43 ± 0.26 | NAS scores [2]: 3.80 ± 0.41 | Steatosis Scores [2]: 2.80 ± 0.07 | level of serum TG compared with the model group [3]: significantly decreased | serum TC level compared with the model group [3]: not significantly decreased

Semaglutide
TG in liver homogenate compared with the Model [4]: significantly reduce | liver absolute weight compared with the Model [4]: significantly reduce | serum ALT level compared with the Model [4]: significantly reduce | serum AST level compared with the Model [4]: significantly reduce | serum TC compared with Model [4]: significantly reduce | serum TG compared with Model [4]: significantly reduce | Epididymal fat [5, 8]: 1.0 ± 0.5 g | Perirenal fat [5, 8]: 0.6 ± 0.6 g | Subcutaneous fat [5, 8]: 0.9 ± 1.0 g | Total Fat [5, 8]: 2.6 ± 2.1 g | weight loss ([5]; 10 nmol/kg, 16 weeks): 24.3% | blood glucose AUCO-72h after the first administration, compared with the Model group ([5]; 10 nmol/kg, p<0.05): significantly reduce | body weight growth rate compared with the Model group ([5]; 16 weeks, P<0.001): significantly reduce | insulin level compared with Model ([5]; end of experiment, serum, P<0.001): significantly reduce | HOMA-IR index compared with Model ([5]; end of experiment, P<0.001): significantly reduce | IPGTT: blood glucose after glucose administration and area under the blood glucose curve, compared with Model ([5]; weeks 2, 8 and 16, 30-90 min or 15-90 min after glucose): significantly reduce | NAS total score [6]: 0.0 ± 0.0 | Fibrosis Manual Score ([6]; Sirius red, score 1-3): 1.5 ± 0.5 | Balloon degeneration ([6]; score): 0.0 ± 0.0 | Inflammation ([6]; score): 0.0 ± 0.0 | Liver steatosis ([6]; score): 0.0 ± 0.0

B1: FGF21: member of the FGF family (fibroblast growth factors); native FGF21 with short half-life (protein, UniProt Q9NSA1 29-209, looked up)
Fibroblast growth factor 21: HPIPDSSPLLQFGGQVRQRYLYTDDAQQTEAHLEIREDGTVGGAADQSPESLLQLKALKPGVIQILGVKTSRFLCQRPDGALYGSLHFDPEACSFRELLLEDGYNVYQSEAHGLPLHLPGNKSPHRDPAPRGPARFLPLPGLPPALPEPPGILAPQPPDVGSSDPLSMVGPSQGRSPSYAS
half-life [7]: about 1 h
